In PMC10344917, “Affinity and cooperativity modulate ternary complex formation to drive targeted protein degradation” (Nature Communications, 2023):
Where two headings read alike, the source gives them in different places.

Key:
[1] = molecular target: T1, SMARCA2^BD (Homo sapiens, UniProt P51531); test: SPR binary binding of PROTAC to SMARCA2-functionalized surface; conditions: 1:1 Langmuir binding model, SEM N=3 or SD N=2, read-out: KTP (binary affinity PROTAC / SMARCA2)
T1 construct: SMARCA2^BD 1373–1511 ∆1400–1417; made in house
Experimental: PROTACs (10 mM stocks in 100% DMSO) were diluted to 400 nM in a running buffer (20 mM Tris pH 7.5, 200 mM NaCl, 0.02% P20). This stock solution was then serially diluted in the running buffer containing final 2% DMSO. Solutions were injected in multi-cycle kinetic format without regeneration (contact time 60 s, flow rate 80 μL/min, dissociation time 120 s) using a stabilization period of 30 s and syringe wash (50% DMSO) between injections onto a high-density VBC-functionalized surface. For SMARCA2 analysis, biotinylated proteins were introduced on a Series S streptavidin (SA) sensor chip at high-density (3000-4000 RU).
Raw sensorgrams were processed by performing double reference subtraction, solvent correction, and analysis was done using Biacore Insight Evaluation Software. Kinetic analysis was performed by fitting data to a 1:1 Langmuir interaction model and a steady-state affinity model was used to evaluate equilibrium binding affinity.

[2] = molecular target: T2, VHL/EloB/EloC (VBC) (Homo sapiens, UniProt P40337); test: SPR binary binding of PROTAC to VBC-functionalized surface; conditions: SPR; error SEM, N = 3; read-out: KLP (binary binding affinity between E3 ligase VHL and PROTAC)
T2 construct: VHL (54-213), ElonginB (17-112) ElonginC (1-104); made in house

[3] = molecular target: T3, SMARCA2-NanoLuc (Homo sapiens, UniProt P51531); test: NanoBRET target engagement assay, live and permeabilized HEK293 cells (SMARCA2); type: cell-based; conditions: SMARCA2 NanoBRET TE
T3 construct: expressed in transfected cells; host or cells: HEK293
Experimental: We employed a NanoBRET-based target engagement (TE) assay as reported earlier^7 for evaluating PROTACs relative permeability. In summary, live and permeabilized HEK293 cells with SMARCA2 or BRD4-NanoLuc were used for measuring IC50 values of different PROTACs. The relative shift in the IC50 was evaluated as relative binding affinity (RBA) by taking the ratio of IC50 values of live and permeabilized cells. Availability index (AI), which is a surrogate for permeability can be calculated by taking a ratio of RBA of compounds to permeable benchmark molecules. We used SMARCA bromodomain binding ligand^8 for SMARCA2 PROTACs and JQ1^9, 10 for BRD4 PROTACs as benchmark molecules.
Relative Binding Affinity (RBA) = Live-cell TE IC50 / Permeabilized-cell TE IC50
Availability Index (AI) = RBAtest cmpd / RBApermeable benchmark
Availability Index (AI) greater than one is indicative of reduced permeability compared to the benchmark.

[4] = molecular target: T4, SMARCA2 (Homo sapiens, UniProt P51531); test: SMARCA2 degradation, MSD assay, dose response; type: cell-based; set-up: key to AUC (area under the dose-response curve): sum of trapezoids of POC vs dose points, h = 1; conditions: A375 cells
T4 construct: endogenous in cells; host or cells: A375
Experimental: A375 cells were treated with SMARCA2 or BRD4 degraders for 2 h (4 h for BRD4) and generated lysates. SMARCA2 or BRD4 protein was measured with a variation of a sandwich ELISA that was assembled from commercially available antibodies as well as reagents and instrumentation procured from Meso Scale Discovery (MSD). Degradation parameter, DC50, is not suitable for PROTACs that induce partial/incomplete DR curves at a fixed time point; maximum drop in target protein level (Dmax) >>0. Conversely, the area under the curve (AUC) can be calculated as a degradation activity parameter for any DR curve, and it encompasses both the degradation potency (i.e., DC50) and efficacy (i.e., Dmax) of PROTACs.
A 1:3 compound dose-response titration was diluted in growth media (1:20), added to appropriate wells of a cell culture plate (1:10) and then assay plates were incubated at 37 °C, 5% CO2.
Plates were washed with 300 µL per well MSD wash buffer (MSD R61TX-1) between each step. Following the last incubation, plates were washed with MSD wash buffer then 150 µL of MSD read buffer (MSD R92TC-2) was added to each well. Plates were immediately read on a MSD plate reader (MSD Sector Imager 6000).
MSD electrochemiluminescence signals were subtracted by the average background signal from wells with lysis buffer alone. Normalized MSD values (POC) for individual compound treated wells were acquired by dividing background-subtracted assay signal by signal from vehicle control wells (cells + 0.1% DMSO) and multiplying by 100. This POC data was graphed using a nonlinear regression curve fit xy analysis and a log(inhibitor) vs response —variable slope (four parameter) model for dose response curves (Graphpad Prism 9, San Diego, CA, USA). To calculate area under the curve, all points on the curve were connected and vertical lines were drawn from each point down to y = 0, generating a series of trapezoids. The area of each trapezoid was determined using the equation A = (1/2)(h)(b1 + b2), where h = 1 (distance between points), b1 = POC of the first point and b2 = POC of the second point. The sum of all trapezoids provides an approximate area under the curve (AUC). For half-life (t1/2) determination in time course studies, a one-phase decay model was used for curve fitting and the time at which the curve crossed 50 POC was determined through interpolation (Graphpad Prism 9, San Diego, CA, USA).

T4 sequence (P51531 whole entry): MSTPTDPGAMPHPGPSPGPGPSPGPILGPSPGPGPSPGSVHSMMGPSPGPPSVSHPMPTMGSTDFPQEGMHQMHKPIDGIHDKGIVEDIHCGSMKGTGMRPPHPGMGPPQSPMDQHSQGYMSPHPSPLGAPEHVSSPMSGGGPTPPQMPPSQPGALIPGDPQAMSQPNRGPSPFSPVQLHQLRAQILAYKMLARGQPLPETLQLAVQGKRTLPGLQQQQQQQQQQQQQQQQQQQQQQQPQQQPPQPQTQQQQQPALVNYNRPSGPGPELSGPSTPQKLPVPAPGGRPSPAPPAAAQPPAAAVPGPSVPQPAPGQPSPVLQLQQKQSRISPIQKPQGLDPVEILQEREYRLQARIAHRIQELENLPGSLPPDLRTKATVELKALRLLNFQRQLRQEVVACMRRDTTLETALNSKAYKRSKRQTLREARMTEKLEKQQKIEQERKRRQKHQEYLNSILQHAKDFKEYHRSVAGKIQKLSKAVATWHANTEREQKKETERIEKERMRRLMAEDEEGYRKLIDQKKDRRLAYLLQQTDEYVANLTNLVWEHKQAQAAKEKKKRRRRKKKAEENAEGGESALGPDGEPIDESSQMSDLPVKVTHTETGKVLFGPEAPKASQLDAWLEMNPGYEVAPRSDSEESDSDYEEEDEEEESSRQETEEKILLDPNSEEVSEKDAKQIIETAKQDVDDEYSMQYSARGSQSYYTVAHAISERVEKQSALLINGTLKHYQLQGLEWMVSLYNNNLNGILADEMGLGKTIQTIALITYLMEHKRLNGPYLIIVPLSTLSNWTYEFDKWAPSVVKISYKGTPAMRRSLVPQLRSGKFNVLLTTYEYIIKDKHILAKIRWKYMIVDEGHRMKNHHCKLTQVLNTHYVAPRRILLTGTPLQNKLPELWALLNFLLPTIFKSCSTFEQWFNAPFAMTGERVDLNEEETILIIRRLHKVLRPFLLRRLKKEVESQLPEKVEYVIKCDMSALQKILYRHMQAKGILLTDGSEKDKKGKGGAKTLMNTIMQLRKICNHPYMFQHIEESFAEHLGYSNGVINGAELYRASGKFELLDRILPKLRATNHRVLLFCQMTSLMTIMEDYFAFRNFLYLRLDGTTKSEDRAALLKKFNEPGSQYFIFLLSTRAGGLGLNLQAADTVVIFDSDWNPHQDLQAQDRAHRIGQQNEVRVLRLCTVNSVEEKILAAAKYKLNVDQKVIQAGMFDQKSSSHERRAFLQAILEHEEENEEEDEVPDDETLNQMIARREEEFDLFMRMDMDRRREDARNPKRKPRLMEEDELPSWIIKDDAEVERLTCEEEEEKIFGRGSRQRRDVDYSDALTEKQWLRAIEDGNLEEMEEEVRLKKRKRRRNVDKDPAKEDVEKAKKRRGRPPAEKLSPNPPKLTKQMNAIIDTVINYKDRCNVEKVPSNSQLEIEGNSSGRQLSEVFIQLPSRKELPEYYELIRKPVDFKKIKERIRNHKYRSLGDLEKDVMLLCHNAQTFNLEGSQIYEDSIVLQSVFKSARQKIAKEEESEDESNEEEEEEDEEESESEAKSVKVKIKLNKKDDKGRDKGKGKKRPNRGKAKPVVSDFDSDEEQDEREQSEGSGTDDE
T3 sequence (P51531 whole entry): as above
T1 sequence (P51531 1373-1493 isoform P51531-2): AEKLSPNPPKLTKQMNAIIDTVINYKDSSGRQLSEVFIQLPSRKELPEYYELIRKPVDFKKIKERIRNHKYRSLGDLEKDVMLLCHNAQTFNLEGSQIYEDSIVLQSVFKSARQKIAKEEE
T2 sequence (Q15369 17-112): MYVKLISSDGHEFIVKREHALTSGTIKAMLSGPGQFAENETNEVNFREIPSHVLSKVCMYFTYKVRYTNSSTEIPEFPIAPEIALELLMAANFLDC
T2 sequence (Q15370 1-104, further chain): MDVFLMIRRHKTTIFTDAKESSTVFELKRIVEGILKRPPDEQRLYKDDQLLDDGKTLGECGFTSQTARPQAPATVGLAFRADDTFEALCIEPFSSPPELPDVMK
T2 sequence (P40337 54-213): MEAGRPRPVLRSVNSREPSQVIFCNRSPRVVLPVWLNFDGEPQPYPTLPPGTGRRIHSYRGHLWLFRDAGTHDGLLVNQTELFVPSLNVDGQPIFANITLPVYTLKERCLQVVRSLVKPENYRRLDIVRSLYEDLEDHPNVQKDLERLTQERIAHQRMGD

Kd [1]: 206 ± 34 nM | Kd [2]: 84.7 ± 5 nM | IC50 ([3]; live HEK293 cells, read-out: Live-Cell TE IC50): 1260 nM | IC50 ([3]; permeabilized HEK293 cells, read-out: Permeabilized-Cell TE IC50): 400 nM | Dmax ([4]; A-375, SMARCA2 degraded, MSD assay, 2 h timepoint): 96% | AUC (area under the dose-response curve) ([4]; SMARCA2 MSD assay, 2 h): 28 | DC50 ([4]; SMARCA2 degradation, MSD assay, 2 h timepoint): 112 nM
SMILES: Cc1ncsc1-c1ccc([C@H](C)NC(=O)[C@@H]2C[C@@H](O)CN2C(=O)[C@@H](NC(=O)c2csc(N3CCN(c4cc(-c5ccccc5O)nnc4N)CC3)n2)C(C)(C)C)cc1 [Compound 5, 2-(4-(3-Amino-6-(2-hydroxyphenyl)pyridazin-4-yl)piperazin-1-yl)-N-((S)-1-((2S,4R)-4-hydroxy-2-(((S)-1-(4-(4-methylthiazol-5-yl)phenyl)ethyl)carbamoyl)pyrrolidin-1-yl)-3,3-dimethyl-1-oxobutan-2-yl)thiazole-4-carboxamide]
